Reference: US9789191B2, “Aqueous drug delivery system” (SOLIXA TECHNOLOGIES, INC., priority 2010, dated 2017)

Experiment: Comparative accelerated storage study of ASA at 45° C. for 3 weeks (HPLC)
Type: physicochemical
Conditions: in distilled water, 143 mg ASA in 8 oz
Experimental: Accelerated storage studies were conducted to examine the stability of ASA in distilled water, ASA in acidified (1% citric acid) distilled water, and of a molecular inclusion complex of ASA-βCD (in distilled water). Duplicate samples of each treatment were made containing 143 mg of ASA in 8 oz of distilled water. For the treatment containing the ASA-βCD complex, a 2:1 ratio of βCD to ASA was used as described in part I of the prototype formulation procedure outlined above. The treatments were stored at 45° C. for 3 weeks to determine the rate of hydrolysis of ASA to its breakdown product salicylic acid. Analysis of degradation products was performed using an Agilent Technologies 1200 series HPLC with a PDA (photodiode array) detector, incorporating a Phenominex C18-2 column (25 cm×0.39 cm i.d., 5 μm particle size). Solvent system A) H2O, Acetonitrile, Phosphoric Acid (95.45:4.5:0.05), and B) H2O, Acetonitrile, Phosphoric Acid (49.95:50:0.05). Solvent B ramped from 10%-80% over 20 minutes. Stability was verified using peak area, which was used to determine the overall percentage of breakdown of ASA to salicylic acid. […] The sensory profile of the βCD-ASA solution was evaluated.

breakdown of ASA to salicylic acid: nearly quantitative breakdown
SMILES: CC(=O)Oc1ccccc1C(=O)O [ASA, acetylsalicylic acid]
